Measurements: PubChem BioAssay (NCI)
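Briefly, cells in 96-well plates were exposed to five compound concentrations for 48 h, and endpoints were estimated by linear interpolation. GI50: concentration for 50% inhibition of growth. TGI: concentration producing complete growth inhibition.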

Key:
Assay in all cases: growth of human tumour cells (NCI), 48 h
UO-31 renal = tested on: UO-31 renal
OVCAR-5 ovarian = tested on: OVCAR-5 ovarian
SN12C renal = tested on: SN12C renal
A549 NSCLC = tested on: A549 NSCLC
K-562 leukemia = tested on: K-562 leukemia
IGROV1 ovarian = tested on: IGROV1 ovarian
786-0 renal = tested on: 786-0 renal
NCI-H460 lung = tested on: NCI-H460 lung
SK-MEL-5 melanoma = tested on: SK-MEL-5 melanoma
NCI-H226 lung = tested on: NCI-H226 lung

Row | SMILES | TGI (UO-31 renal) [µM] | TGI (OVCAR-5 ovarian) [µM] | TGI (SN12C renal) [µM] | TGI (A549 NSCLC) [µM] | TGI (K-562 leukemia) [µM] | TGI (IGROV1 ovarian) [µM] | TGI (786-0 renal) [µM] | TGI (NCI-H460 lung) [µM] | TGI (SK-MEL-5 melanoma) [µM] | GI50 (UO-31 renal) [µM] | GI50 (OVCAR-5 ovarian) [µM] | GI50 (SN12C renal) [µM] | GI50 (A549 NSCLC) [µM] | GI50 (K-562 leukemia) [µM] | GI50 (IGROV1 ovarian) [µM] | GI50 (786-0 renal) [µM] | GI50 (NCI-H460 lung) [µM] | GI50 (SK-MEL-5 melanoma) [µM] | GI50 (NCI-H226 lung) [µM] | TGI (NCI-H226 lung) [µM]
1 | Cn1cc(NC(=O)c2cc(NC(=O)CCCCCC(=O)Nc3cc(C(=O)Nc4cc(C(=O)NCCC(=N)N)n(C)c4)n(C)c3)cn2C)cc1C(=O)NCCC(=N)N | > 100 | > 100 | > 100 | > 100 | > 100 | > 100 | > 100 | > 100 | > 100 |  |  |  |  |  |  |  |  |  |  | 
2 | OC1CCC(Oc2cccc3cnc(Nc4ccc5nc[nH]c5c4)nc23)CC1 (configuration not stated) | 1.88 | 30.7 | 72.7 | 19.7 | 19.3 | 16.6 | 10.1 | 11.8 | 6.51 | 0.227 | 0.327 | 0.392 | 0.404 | 0.536 | 0.287 | 0.336 | 0.275 | 0.47 |  | 
3 | Cn1nnnc1[N-]Cc1ccccc1.[Au+].c1ccc([PH+](c2ccccc2)c2ccccc2)cc1 | 25.7 | 28.4 | 17 | 71.3 |  | 8.16 | 3.37 | 65.7 | 3.6 | 13 | 14.8 | 5.01 | 21.2 |  | 2.43 | 1.71 | 19.1 | 1.6 | 8.49 | 29.7
4 | COc1ccc(/C=[N+](\[O-])[C@H](COCc2ccccc2)c2ccccc2)cc1 | > 100 | > 100 |  |  | > 100 | > 100 | > 100 | > 100 |  |  |  |  |  |  |  |  |  |  |  | 
5 | c1cncc(C2c3[nH]c4ccccc4c3CCN2CCN2CCCCC2)c1 (configuration not stated) | > 100 | > 100 | > 100 | > 100 | > 100 | > 100 | > 100 | > 100 | > 100 |  |  |  |  |  |  |  |  |  |  | 
6 | CCOC(=O)/C(=C\c1ccc(CO)o1)P(=O)(OCC)OCC |  | > 100 | 96.2 | > 100 |  | > 100 | 45.3 | 32.6 | > 100 |  |  |  |  |  |  |  |  |  |  | > 100
7 | CC/C=C\C[C@H](O)C/C=C1/C(=O)C=C[C@@H]1C/C=C\CCCC(N)=O | 3.42 | 11.8 | 6.43 | 6.01 |  | 12.2 | 3.62 | 6.97 | 2.97 | 1.63 | 3.89 | 2.32 | 2.49 |  | 3.09 | 1.94 | 2.27 | 1.56 | 2.34 | 5.48
8 | CN(C)CN1C(=O)S/C(=C2\C(=O)N(CN(C)C)c3ccccc32)C1=O | 91.8 | > 100 | 69.4 | > 100 |  | > 100 | > 100 | > 100 | > 100 |  |  |  |  |  |  |  |  |  |  | > 100
9 | CCC(=O)N1C/C(=C/c2ccc(OC)cc2)C(=O)/C(=C/c2ccc(OC)cc2)C1 | 2.71 | 3.75 | 3.51 |  | > 100 | 4.93 | 3.72 | 4.48 | 3.04 | 1.34 | 1.86 | 1.78 |  | 1.19 | 2.21 | 1.87 | 2.05 | 1.62 | 22.3 | > 100
10 | COc1ccc2c(C3(O)CCNCC3)c[nH]c2c1 | > 100 | > 100 | > 100 | > 100 | > 100 | > 100 | > 100 | > 100 | > 100 |  |  |  |  |  |  |  |  |  |  | 
11 | CCCCCCCCCCCCC(SCCNC(=O)CCNC(=O)C(O)C(C)(C)COP(=O)(O)OP(=O)(O)OCC1OC(n2cnc3c(N)ncnc32)C(O)C1OP(=O)(O)O)C(=O)NCC(N)=O (configuration not stated) | > 100 | > 100 | > 100 | > 100 |  | > 100 | > 100 | > 100 | > 100 |  |  |  |  |  |  |  |  |  |  | > 100
12 | O=C(O)c1nnsc1COCc1ccccc1 | > 100 | > 100 | > 100 | > 100 | > 100 | > 100 | > 100 | > 100 | > 100 |  |  |  |  |  |  |  |  |  |  | 
13 | C=CCN(N=O)C(=O)N(CCC)CCCC(NC(C)=O)C(=O)NCc1ccccc1 (configuration not stated) | > 100 | > 100 | > 100 | > 100 | > 100 | > 100 | > 100 | > 100 | > 100 |  |  |  |  |  |  |  |  |  |  | 
14 | C=C(CNCCO)[C@@H]1CC[C@]2(CO)CC[C@]3(C)[C@H](CC[C@@H]4[C@@]5(C)CCC(NCCc6ccc(O)cc6)C(C)(C)[C@@H]5CC[C@]43C)[C@@H]12 (some centres not stated) | 2.94 | 3.29 | 3.19 | 2.74 |  | 3.55 | 0.523 | 2.63 | 3.13 | 1.51 | 1.7 | 1.69 | 1.43 |  | 1.64 | 0.202 | 1.18 | 1.69 | 1.69 | 3.48
